According to patent US12344610B2, “APOL1 inhibitors and methods of use” (Maze Therapeutics, Inc., priority 2022, dated 2025):

Key:
Type in all cases: cell-based
[1] = tested on: HEK293 cells overexpressing APOL1 G2; experiment: APOL1 G2 HEK293 cell rescue assay (reversal of cell death caused by overexpression of APOL1); conditions: Homo sapiens, HEK293, HEK293 overexpressing APOL1 G2; geometric mean of at least 2 assay runs; † = single assay run
Method in brief: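 EC50 is the half-maximal effective concentration for reversing cell death driven by APOL1 G2 overexpression in HEK293 cells. Reported as geometric mean of at least 2 runs on separate days, each run averaging duplicate wells per plate; some values from a single run.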

[2] = tested on: Trypanosoma brucei Lister 427 VSG221 with APOL1 G1 recombinant protein; experiment: APOL1 G1 trypanosome cell rescue assay (Example B5); conditions: Trypanosoma brucei, 20 h, read-out: APOL1 G1 Trypanosome Rescue EC50, Trypanosoma brucei Lister 427 VSG221 with APOL1 G1 recombinant protein, 20 hours, CellTiter-Glo; geometric mean of at least 2 assay runs; † = single assay run
Method in brief: (§1)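 Recombinant mature APOL1 (residues 28-398, His-tag removed, E. coli-expressed, refolded from inclusion bodies, DDM buffer) at […] added with 250 trypanosomes/well in modified HMI-9 media. Duplicate 11-point 2-fold compound series, 0.4% DMSO; 20 h at 37° C, 5% CO2, then CellTiter-Glo luminescence for viability.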

[3] = tested on: Trypanosoma brucei Lister 427 VSG221 with APOL1 G2 recombinant protein; experiment: APOL1 G2 trypanosome cell rescue assay (Example B5); conditions: Trypanosoma brucei, 20 h, read-out: APOL1 G2 Trypanosome Rescue EC50, Trypanosoma brucei Lister 427 VSG221 with APOL1 G2 recombinant protein, 20 hours, CellTiter-Glo; geometric mean of at least 2 assay runs; † = single assay run
Method in brief: as §1

Row | Compound | EC50 [1] | EC50 [2] | EC50 [3]
1 | C[C@]1(O)C[C@@H](N2C(=O)NCc3cc(OCCN4CCC5(CC4)C(=O)Nc4ccc(Cl)cc45)cnc32)C1 [Compound 356, 5-chloro-1′-[2-({2-oxo-1-[(cis)-3-hydroxy-3-methylcyclobutyl]-1H,2H,3H,4H-pyrido[2,3-d]pyrimidin-6-yl}oxy)ethyl]-1,2-dihydrospiro[indole-3,4′-piperidin]-2-one] | 50.6 nM | 113 nM | 37.4 nM
2 | CC(C)(O)c1ncc(OCCN2CCC3(CC2)C(=O)Nc2ccc(Cl)cc23)cc1C(F)(F)F [Compound 371, 5-chloro-1′-(2-{[6-(2-hydroxypropan-2-yl)-5-(trifluoromethyl)pyridin-3-yl]oxy}ethyl)-1,2-dihydrospiro[indole-3,4′-piperidin]-2-one] | 17.2 nM | 21.9 nM | 9.16 nM
3 | CCC1(O)CN(c2ncc(OCCN3CCC4(CC3)C(=O)Nc3ccc(Cl)cc34)cn2)C1 [Compound 397, 5-chloro-1′-(2-{[2-(3-ethyl-3-hydroxyazetidin-1-yl)pyrinlidin-5-yl]oxy}ethyl)-1,2-dihydrospiro[indole-3,4′-piperidin]-2-one] | 45.9 nM | 269 nM | 85.2 nM
4 | C[C@]1(O)C[C@@H](n2ccc3cc(OCCN4CCC5(CC4)C(=O)Nc4ccc(C#N)cc45)cnc32)C1 [Compound 410, 2-oxo-1′-[2-({1-[(cis)-3-hydroxy-3-methylcyclobutyl]-1H-pyrrolo[2,3-b]pyridin-5-yl}oxy)ethyl]-1,2-dihydrospiro[indole-3,4′-piperidine]-5-carbonitrile] | 64.1 nM | 269 nM | 92.4 nM
5 | [2H]C([2H])(Oc1cnc2c(c1)CCC(=O)N2[C@H]1C[C@@](C)(O)C1)C([2H])([2H])N1CCC2(CC1)C(=O)Nc1ccc(Cl)cc12 [Compound 426, 5-chloro-1′-[2-({7-oxo-8-[(cis)-3-hydroxy-3-methylcyclobutyl]-5,6,7,8-tetrahydro-1,8-naphthyridin-3-yl}oxy)(1,1,2,2-^2H4)ethyl]-1,2-dihydrospiro[indole-3,4′-piperidin]-2-one] | 37.8 nM | 88.8 nM | 36.7 nM
6 | C[C@]1(O)C[C@@H](n2cc3cc(OCCN4CCC5(CC4)C(=O)Nc4ccc(Cl)cc45)cc(C(F)(F)F)c3n2)C1 [Compound 427, 5-chloro-1′-[2-({2-[(cis)-3-hydroxy-3-methylcyclobutyl]-7-(trifluoromethyl)-2H-indazol-5-yl}oxy)ethyl]-1,2-dihydrospiro[indole-3,4′-piperidin]-2-one] | 18.5 nM | 18.1 nM | 6.62 nM
7 | C[C@]1(O)C[C@@H](n2cc3cc(OCCN4CCC5(CC4)C(=O)Nc4ccc(C#N)cc45)cc(C(F)(F)F)c3n2)C1 [Compound 428, 2-oxo-1′-[2-({2-[(cis)-3-hydroxy-3-methylcyclobutyl]-7-(trifluoromethyl)-2H-indazol-5-yl}oxy)ethyl]-1,2-dihydrospiro[indole-3,4′-piperidine]-5-carbonitrile] | 54.3 nM | 71.9 nM | 32.3 nM
8 | C[C@]1(O)C[C@@H](n2nnc3cc(OCCN4CCC5(CC4)C(=O)Nc4ccc(C#N)cc45)cc(C(F)(F)F)c32)C1 [Compound 435, 2-oxo-1′-[2-({1-[(cis)-3-hydroxy-3-methylcyclobutyl]-7-(trifluoromethyl)-1H-1,2,3-benzotriazol-5-yl}oxy)ethyl]-1,2-dihydrospiro[indole-3,4′-piperidine]-5-carbonitrile] | 12.9 nM | 27.2 nM | 14.5 nM
9 | C[C@]1(O)C[C@@H](n2cnc3cc(OCCN4CCC5(CC4)C(=O)Nc4ccc(Cl)cc45)cc(C#N)c32)C1 [Compound 439, 5-(2-{5-chloro-2-oxo-1,2-dihydrospiro[indole-3,4′-piperidin]-1′-yl}ethoxy)-1-[(cis)-3-hydroxy-3-methylcyclobutyl]-1H-1,3-benzodiazole-7-carbonitrile] | 14.9 nM | 51 nM | 20.2 nM
10 | C[C@]1(O)C[C@@H](n2nnc3cc(OCCN4CCC5(CC4)C(=O)Nc4ccc(Cl)cc45)cnc32)C1 [Compound 440, 5-chloro-1′-[2-({3-[(cis)-3-hydroxy-3-methylcyclobutyl]-3H-[1,2,3]triazolo[4,5-b]pyridin-6-yl}oxy)ethyl]-1,2-dihydrospiro[indole-3,4′-piperidin]-2-one] | 54.4 nM | 205 nM | 70.5 nM
11 | CC1(O)CC2(CN(c3ncc(OCCN4CCC5(CC4)C(=O)Nc4ccc(Cl)cc45)cn3)C2)C1 [Compound 459, 5-chloro-1′-{2-[(2-{6-hydroxy-6-methyl-2-azaspiro[3.3]heptan-2-yl}pyrimidin-5-yl)oxy]ethyl}-1,2-dihydrospiro[indole-3,4′-piperidin]-2-one] | 29 nM | 133 nM | 49.8 nM
12 | C[C@]1(O)C[C@@H](N2C(=O)C3(CC3)c3cc(OCCN4CCC5(CC4)C(=O)Nc4ccc(Cl)cc45)cnc32)C1 [Compound 460, 5-chloro-1′-(2-{2′-oxo-1′-[(cis)-3-hydroxy-3-methylcyclobutyl]-1′,2′-dihydrospiro[cyclopropane-1,3′-pyrrolo[2,3-b]pyridin]-5′-yloxy}ethyl)-1,2-dihydrospiro[indole-3,4′-piperidin]-2-one] | 54.1 nM | 118 nM | 53.7 nM
13 | [2H]C([2H])([2H])[C@]1(O)C[C@@H](N2C(=O)CCc3cc(OCCN4CCC5(CC4)C(=O)Nc4ccc(Cl)cc45)cnc32)C1 [Compound 461, 5-chloro-1′-[2-({7-oxo-8-[(cis)-3-hydroxy-3-(^2H3)methylcyclobutyl]-5,6,7,8-tetrahydro-1,8-naphthyridin-3-yl}oxy)ethyl]-1,2-dihydrospiro[indole-3,4′-piperidin]-2-one] | 28.1 nM | 75.5 nM | 28.8 nM
14 | C[C@]1(O)C[C@@H](n2c(=O)[nH]c3cc(OCCN4CCC5(CC4)C(=O)Nc4ccc(Cl)cc45)cc(C(F)(F)F)c32)C1 [Compound 468, 5-chloro-1′-[2-({2-oxo-1-[(cis)-3-hydroxy-3-methylcyclobutyl]-7-(trifluoromethyl)-2,3-dihydro-1H-1,3-benzodiazol-5-yl}oxy)ethyl]-1,2-dihydrospiro[indole-3,4′-piperidin]-2-one] | 6.45 nM | 5.59 nM | 2.4 nM
15 | C[C@]1(O)C[C@@H](n2c(=O)[nH]c3cc(OCCN4CCC5(CC4)C(=O)Nc4ccc(C#N)cc45)cc(C(F)(F)F)c32)C1 [Compound 470, 2-oxo-1′-[2-({2-oxo-1-[(cis)-3-hydroxy-3-methylcyclobutyl]-7-(trifluoromethyl)-2,3-dihydro-1H-1,3-benzodiazol-5-yl}oxy)ethyl]-1,2-dihydrospiro[indole-3,4′-piperidine]-5-carbonitrile] | 179 nM | 12.4 nM | 4.41 nM
